For one test, the target named is T1, OX1 (Homo sapiens, UniProt O43613).
T1 construct: expressed in transfected cells; host or cells: CHO (CHO-OX1)
T1 sequence (O43613 1-425): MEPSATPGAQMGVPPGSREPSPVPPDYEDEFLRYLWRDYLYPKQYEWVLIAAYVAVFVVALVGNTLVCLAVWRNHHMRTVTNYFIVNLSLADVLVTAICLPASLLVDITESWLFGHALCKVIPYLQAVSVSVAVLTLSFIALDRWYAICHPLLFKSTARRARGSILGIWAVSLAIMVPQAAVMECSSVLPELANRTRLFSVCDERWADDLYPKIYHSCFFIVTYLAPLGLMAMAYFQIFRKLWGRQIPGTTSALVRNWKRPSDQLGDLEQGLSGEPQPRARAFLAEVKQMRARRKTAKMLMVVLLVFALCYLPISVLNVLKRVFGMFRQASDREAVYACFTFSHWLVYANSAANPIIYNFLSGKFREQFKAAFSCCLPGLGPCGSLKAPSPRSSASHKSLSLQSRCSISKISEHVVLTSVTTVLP
Nature of the test: Orexin receptor cell-based functional assay, [Ca2+]i by FLIPR, CHO-OX1 cells. To be noted: FLIPR calcium, antagonism of EC90 of [OX], read-out: OXI, IC50.

Another test concerns the target T2, OX2 (Homo sapiens, UniProt O43614).
T2 construct: expressed in transfected cells; host or cells: CHO (CHO-OX2)
T2 sequence (O43614 1-444): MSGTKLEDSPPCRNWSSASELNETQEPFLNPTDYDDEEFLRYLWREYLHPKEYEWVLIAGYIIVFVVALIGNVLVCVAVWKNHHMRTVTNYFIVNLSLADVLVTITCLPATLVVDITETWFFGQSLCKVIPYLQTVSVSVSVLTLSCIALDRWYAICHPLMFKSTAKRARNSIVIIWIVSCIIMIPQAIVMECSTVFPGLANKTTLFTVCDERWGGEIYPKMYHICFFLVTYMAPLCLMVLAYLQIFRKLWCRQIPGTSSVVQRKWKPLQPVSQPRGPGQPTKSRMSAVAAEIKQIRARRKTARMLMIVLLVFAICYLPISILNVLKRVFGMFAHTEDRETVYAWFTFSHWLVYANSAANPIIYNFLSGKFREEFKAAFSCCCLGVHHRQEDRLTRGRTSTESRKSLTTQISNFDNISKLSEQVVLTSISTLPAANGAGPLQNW
As to the kind of experiment: Orexin receptor cell-based functional assay, [Ca2+]i by FLIPR, CHO-OX2 cells. As to conditions: FLIPR calcium, antagonism of EC90 of [OX]. In short, it runs like this:
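CHO cells expressing human OX1 or OX2 (20,000/well, grown overnight) were loaded with Calcium6 dye plus 2.5 mM probenecid for 2 h at 37 °C, then preincubated 30 min with compound (0.1 nM–10 µM). FLIPR fluorescence (ex 488/em 540 nm) was tracked before and after an EC90 orexin challenge.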

For `C[C@@H]1CC(F)(F)CN(C(=O)c2cc(C#N)ccc2-n2nccn2)[C@@H]1CNc1ncc(C(F)(F)F)cn1` [Compound 14], the IC50 was 52 nM on OX1 and greater than 5000 nM at OX2.
In the case of `COc1ccc(-c2cn(C)nc2C(=O)N2CC(F)(F)C[C@@H](C)[C@H]2CNc2ccc(C(F)(F)F)cn2)cc1` [Compound 177], the IC50 on OX1 was determined as 6 nM; at OX2, 170 nM.
Regarding `Cc1ccccc1-c1cn(C)nc1C(=O)N1CC(F)(F)C[C@@H](C)[C@H]1CNc1ncc(C(F)(F)F)cn1` [Compound 24], the IC50 at OX1 was 385 nM; at OX2, greater than 5000 nM.
`C[C@@H]1CC(F)(F)CN(C(=O)c2nn(C)cc2-c2ccccn2)[C@@H]1CNc1ccc(C(F)(F)F)cn1` [Compound 167]: the IC50 at OX1 was 5 nM; at OX2 it was greater than 5000 nM.
Take `C[C@@H]1CC(F)(F)CN(C(=O)c2nn(C)cc2-c2ccc(F)cc2)[C@@H]1CNc1ccc(C(F)(F)F)cn1` [Compound 169]: the results for the IC50 on OX1 and on OX2 were 2 nM and greater than 5000 nM, respectively.
As for `Cc1ccc(-c2sc(C)nc2C(=O)N2CC(F)(F)C[C@@H](C)[C@H]2CNc2ccc(C(F)(F)F)cn2)cc1` [Compound 186], the IC50 at OX1 is 6 nM; on OX2, greater than 5000 nM.
Consider `Cc1ccc(-c2nnn(C)n2)c(C(=O)N2CC(F)(F)C[C@@H](C)[C@H]2CNc2ncc(C(F)(F)F)cn2)n1` [Compound 240, ((2S,3R)-5,5-difluoro-3-methyl-2-(((5-(trifluoromethyl)pyrimidin-2-yl)amino)methyl)piperidin-1-yl)(6-methyl-3-(2-methyl-2H-tetrazol-5-yl)pyridin-2-yl)methanone], for which the IC50 at OX1 was 29 nM; on OX2 it was greater than 5000 nM.
For `Cc1cccnc1-c1cn(C)nc1C(=O)N1CC(F)(F)C[C@@H](C)[C@H]1CNc1ncc(C(F)(F)F)cn1` [Compound 39] the same measures were 1160 nM and greater than 5000 nM.
As to `C[C@@H]1CC(F)(F)CN(C(=O)c2nn(C)cc2-c2ncccn2)[C@@H]1CNc1ncc(C(F)(F)F)cn1` [Compound 97, ((2S,3R)-5,5-difluoro-3-methyl-2-(((5-(trifluoromethyl)pyrimidin-2-yl)amino)methyl)piperidin-1-yl)(1-methyl-4-(pyrimidin-2-yl)-1H-pyrazol-3-yl)methanone], the IC50 was 12 nM on OX1 and greater than 5000 nM on OX2.
Take `Cc1noc(-c2ccc(Cl)cc2C(=O)N2CC(F)(F)C[C@@H](C)[C@H]2CNc2ncc(C(F)(F)F)cn2)n1` [Compound 19]: the 50% inhibitory concentration (IC50) was 10 nM at OX1 and greater than 5000 nM at OX2.
`C[C@@H]1CC(F)(F)CN(C(=O)c2nn(C)cc2-c2ncccn2)[C@@H]1COc1ncc(C(F)(F)F)cc1F` [Compound 247]: the IC50 on OX1 was 437 nM; on OX2, greater than 5000 nM.
The corresponding values for `C[C@@H]1CC(F)(F)CN(C(=O)c2nn(C)cc2-c2ncc(F)cn2)[C@@H]1CNc1ncc(C(F)(F)F)cc1F` [Compound 242, ((2S,3R)-5,5-difluoro-2-(((3-fluoro-5-(trifluoromethyl)pyridin-2-yl)amino)methyl)-3-methylpiperidin-1-yl)(4-(5-fluoropyrimidin-2-yl)-1-methyl-1H-pyrazol-3-yl)methanone] are 5 nM and greater than 5000 nM.
`COc1cccc(-c2cn(C)nc2C(=O)N2CC(F)(F)C[C@@H](C)[C@H]2CNc2ncc(C(F)(F)F)cn2)c1` [Compound 29]: the IC50 was 4 nM at OX1 and greater than 5000 nM on OX2.
`Cc1ccc(-c2ncccn2)c(C(=O)N2CC(F)(F)C[C@@H](C)[C@H]2CNc2ncc(Cl)cn2)n1` [Compound 18, ((2S,3R)-2-(((5-chloropyrimidin-2-yl)amino)methyl)-5,5-difluoro-3-methylpiperidin-1-yl)(6-methyl-3-(pyrimidin-2-yl)pyridin-2-yl)methanone]: the IC50 on OX1 is 18 nM; on OX2 it was greater than 5000 nM.
For the compound `Cc1cccc(-c2sc(C)nc2C(=O)N2CC(F)(F)C[C@@H](C)[C@H]2CNc2ccc(C(F)(F)F)cn2)c1` [Compound 187], the IC50 on OX1 amounted to 7 nM; on OX2, 3000 nM.

What is called IC50 is the concentration that inhibits the measured activity by half.

(Values after US12084437B2, “Halo-substituted piperidines as orexin receptor modulators” (AstraZeneca AB, priority 2016, dated 2024).)
